Read-outs that look alike come from different tables or passages of the source. Blank lines part the entries; values can stand above or below the molecule they belong to.
How the values were obtained:
[1] = 6-hydroxydopamine-induced cell toxicity, XTT cell viability; type: cell-based; settings: human, 24 h, read-out: decrease in cell viability
Protocol: (§1) SHSY5Y (obtained from ATCC) were grown at 37° C. under an atmosphere of 95% air and 5% CO2 in DMEM medium supplemented with 10% fetal bovine serum, 2 mM L-glutamine, 1000 U/ml penicillin, and 1 mg/ml streptomycin until 60-70% of confluence. Further, the cells were incubated with increasing concentrations of 6-hydroxydopamine. After 24 hours, and cells viability was assayed using the XTT (2,3-bis-(2-methoxy-4-nitro-5-sulfophenyl)-2H-tetrazolium-5-carboxanilide) method, according to the supplier instructions. […] The 50% decrease in cell survival was obtained at about 50 μM of 6-hydroxydopamine.
(§2) Cell viability as assayed following 24 h incubation with different concentrations of 6-hydroxydopamine in the absence (closed squares (▪)) or in the presence of VBIT-12 (15 μM, closed circles (●)) is shown.
(§3) Similarly, cells that were incubated with increasing concentrations of VBIT-12 in presence of either 30 or 50 μM of 6-hydroxydopamine that decreased cell viability by […], respectively, remained viable after 24 hours of the incubation. Cells viability is charted in FIG. 24C versus the concentrations of VBIT-12. Closed squares (▪) indicate control group without 6-hydroxydopamine, open circles (◯) indicates cells' viability when exposed to 30 μM of the 6-hydroxydopamine, and closed circles (●) indicate cells viability at 50 μM of the 6-hydroxydopamine.

SHSY5Y cells = assay: as above; type: cell-based; settings: Homo sapiens, SH-SY5Y, 24 h, read-out: concentration giving 50% decrease in cell survival
Protocol: as §1, §2, §3

[2] = system: Cyto c release from mitochondria; assay: Selenite-induced Cytochrome c release from mitochondria in HEK-293 cells; type: cell-based; settings: Homo sapiens, HEK293, compound 2 h then selenite 15 μM 4 h, means±SD (n=3)
Protocol: One of the ways cell apoptosis is activated is by release of Cytochrome c (Cyto c) from the mitochondria into cytosol. […] Cyto c released to the cytosol may be analyzed by immunoblotting using Cyto c-specific antibodies.
Cells treated with apoptosis inducers in the absence or presence of the tested compounds were harvested, washed twice with PBS, pH 7.4 and gently resuspended at 6 mg/ml in ice-cold buffer (100 mM KCl, 2.5 mM MgCl2, 250 mM sucrose, 20 mM HEPES/KOH pH 7.5, 0.2 mM EDTA, 1 mM dithiothreitol, 1 μg/ml leupeptin, […] and 0.1 mM PMSF) containing 0.025% digitonin and incubated for 10 min on ice. Samples were centrifuged at 10,000×g (relative centrifugal force—RCF) at 4° C. for 5 min to obtain supernatants (cytosolic extracts free of mitochondria) and pellet (fraction that contains mitochondria). Cytochrome c released to the cytosol was analyzed by immunoblotting using Cytochrome c-specific antibodies. Anti-VDAC1 and anti-GAPDH antibodies were used to verify that the cytosolic extracts are mitochondria-free.
c. Cytochrome c (Cyto c) release was determined as described above in Methods (Cytochrome c release from mitochondria). Briefly, to assess Cyto c release, cells were incubated on ice for 10 min with 0.025% digitonin, centrifuged, and the pellet (mitochondria—Mito) and supernatants (cytosol—Cytos) were subjected to SDS-PAGE and immunoblotting, using anti-Cyto c, antibodies. Anti-VDAC1 and anti-GAPDH antibodies were used to verify that the cytosolic extracts are mitochondria-free. The results of Cyto c release from the mitochondria as induced by selenite are presented as immunoblots, with the cytosolic and mitochondrial fractions confirmed by immunoblotting of GAPDH (glyceraldehyde-3-phosphate dehydrogenase) and VDAC1, respectively, in the FIG. 15d. The data are presented as percent inhibition. The results shown correspond to means±SD (n=3). The closed circle (●) indicates VBIT-4 (compound of Formula 1), the open circle (◯) indicates compound of Formula 10 (AKOS-022), and an open square (□) indicates VBIT-3 (compound of Formula 2).
d. […]

HEK-293 cells = assay: Selenite-induced apoptosis, annexin V-FITC/PI staining and FACS, HEK-293 cells; type: cell-based; settings: Homo sapiens, HEK293, compound 2 h then selenite 15 μM 4 h, means±SD (n=3)
Protocol: The ability of the compounds of general Formulae (I), (Ia), (Ib), (Ic), (Id), (II) and (IIa) to inhibit apoptosis may be analyzed by annexin-V/propidium iodide (PI) staining and flow cytometry.
Cells, e.g. HeLa cells (2×10^5), untreated or treated with apoptosis-inducing reagents, were analyzed for apoptotic cell death using PI, annexin V-FITC and flow cytometer analysis. Cells were collected (1500×g for 10 min), washed, and resuspended in 200 μl binding buffer (10 mM HEPES/NaOH, pH 7.4, 140 mM NaCl, and 2.5 mM CaCl2). Annexin V-FITC was added according to the recommended Protocol (Enzo Life Sciences, Switzerland), and the cells were incubated in the dark for 15 min. Cells were then washed with binding buffer and resuspended in 200 μl binding buffer, to which PI was added immediately before flow cytometry analysis. At least 10,000 events were collected, recorded on a dot plot, and analyzed by the FACSCalibur™ flow cytometer software (BD Biosciences, Franklin Lakes, N.J.).
b. Additionally, the inhibition of selenite-induced apoptosis by the compounds as analyzed using annexin V-FITC/PI staining and FACS, presented in the FIG. 15c.
(§4) d. IC50 values of the tested compounds were derived from the obtained data. The results shown correspond to means±SD (n=3).

purified VDAC1 = molecular target: T1, purified VDAC1 (Rattus norvegicus, UniProt Q9Z2L0); assay: Microscale thermophoresis (MST) binding to purified VDAC1
T1 construct: rat liver mitochondria (5 mg/ml) in 10 mM Tris-HCl, pH 7.2, were incubated with 2% LDAO; from tissue; host or cells: rat liver mitochondria
T1 sequence (Q9Z2L0 whole entry): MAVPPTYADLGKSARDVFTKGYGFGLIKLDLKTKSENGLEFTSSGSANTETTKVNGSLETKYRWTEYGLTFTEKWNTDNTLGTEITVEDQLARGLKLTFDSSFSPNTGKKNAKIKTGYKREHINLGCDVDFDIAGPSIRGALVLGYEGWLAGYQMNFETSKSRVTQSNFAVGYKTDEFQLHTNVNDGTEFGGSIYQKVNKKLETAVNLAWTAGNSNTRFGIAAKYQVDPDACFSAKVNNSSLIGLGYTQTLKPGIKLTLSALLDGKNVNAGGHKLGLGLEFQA
Protocol: To obtain quantitative parameters of this interaction and derive a dissociation constant, e.g. a microscale thermophoresis (MST) interaction assay may be performed. In this manner, dissociation values are derived from the curves showing the affinity of the compounds of the invention to VDAC.
Briefly, rat liver mitochondria (5 mg/ml) in 10 mM Tris-HCl, pH 7.2, were incubated with 2% LDAO at 0° C. for 20 min, followed by centrifugation (30 min, 14,000 g) and the obtained supernatant was loaded onto a dry celite:hydroxyapatite (2:1) column. VDAC1 was eluted with a solution containing 2% LDAO, 10 mM Tris-HCl, pH 7.2, 50 mM NaCl, and 20 to 22 mM NaH2PO4, with VDAC1 detection by Coomassie blue staining. The VDAC1-containing fractions were dialyzed against 10 mM Tris-HCl, pH 7.2, and subjected to a second chromatography step on a carboxymethyl-cellulose (CMC) column from which VDAC1 was eluted with a solution containing 10 mM Tris-HCl, pH 7.2, 0.1% LDAO and 500 mM NaCl, detected as above. The VDAC1-containing fractions were collected and used for VDAC1 channel conductance and MST assays.
MST analysis was performed using a NanoTemper Monolith NT.115 apparatus. […]
Purified VDAC1 (133 nM), labeled using the NanoTemper fluorescent protein-labeling Kit BLUE (Nano Temper technologies, Munich, Germany), according to the manufactory instructions, was incubated with increasing concentrations of the following tested compounds: compound of Formula 10 (AKOS-022), compound of Formula 2 (VBIT-3), or racemic compound of Formula 1 (VBIT-4). After 20 min of incubation, the samples (3-5 μL) were loaded into MST-grade glass capillaries (Monolith NT Capillaries), and the thermophoresis process was measured using the Monolith-NT115 apparatus.
Fmax and Fmin represent the maximal and minimal fluorescence, respectively and F the fluorescence measured in the presence of the tested compound.
VDAC1 binding affinities of tested compounds were calculated from the MST measurements.

VDAC1 = VDAC1 (Homo sapiens, UniProt P21796); assay: Selenite-induced VDAC1 oligomerization by EGS cross-linking and immunoblot in HEK-293 cells (Method B); type: cell-based; design: endogenous in cells; host or cells: HEK-293
Chain of VDAC1 (P21796 whole entry): as the sequence (Q9Z2L0 whole entry) above, with N55T, V129M, S160A, V227I counted along it
Protocol: Appropriate test cells (2.5-3 mg/ml) in PBS, were harvested after the treatment and incubated with the cross-linking reagent EGS at a ratio of 100-300 μM for sample of 2-3 mg protein/ml concentration (pH 8.3) for 15 minutes. Protein concentration was determined according to Lowry assay. Samples (60-80 μg protein) were subjected to SDS-PAGE by a standard technique and immunoblotting was performed using anti-VDAC1 antibodies. Gels were electro-transferred onto nitrocellulose membranes for immuno-staining. The membranes were incubated with a blocking solution containing 5% non-fat dry milk and 0.1% Tween-20 in Tris-buffered saline, followed by incubation with monoclonal anti-VDAC1, anti-Cytochrome c, anti-AIF or anti-actin antibodies. Membranes were then incubated with HRP-conjugated anti-mouse or anti-rabbit IgG (1:10,000), serving as secondary antibodies. Antibody labeling was detected by chemiluminescence. To detect VDAC1 oligomers, membranes were treated with 0.1 M glycine, pH 2.0, prior to immunoblotting and washed several times with 0.1% Tween-20 in Tris-buffered saline. Quantitative analysis of immuno-reactive VDAC1 dimer, trimer and multimer bands was performed using FUSION-FX (Vilber Lourmat, France).
The closed circle (●) indicates VBIT-4 (compound of Formula 1), the open circle (◯) indicates compound of Formula 10, and an open square (□) indicates VBIT-3 (compound of Formula 2).
as §4

[3] = Brain penetration after oral gavage, HPLC/MS of brain extracts; type: in vivo, C57BL/6 mice; settings: for concentration at 12 h / concentration at 24 h: C57BL/6, mouse, brain, oral, 50 mg/kg, mouse, read-out: Compounds in brain extract
Protocol: C57BL/6 mice ([…]) were used. The animals received treatments with either free compounds of Formulae 1 and 10, or encapsulated compounds, prepared according to the Examples 16 and 17. Doses as indicated in the Table 4 below were administered in phosphate-buffered saline (PBS) through an oral gavage. After 12 hours and 24 hours, randomly selected mice from each group were sacrificed, their brains collected and stored in −80° C. The concentrations of the compounds in the tissues were determined by HPLC/MS analysis.
Tissue samples were homogenized in phosphate-buffered saline solution, then diluted with acetonitrile to 50% v/v, centrifuged at 10,000 g for 10 minutes, and supernatants were analyzed. The compounds concentrations in the brain extracts were determined from calibration curves. The results were the averaged from 2 mice for each treatment group/time point.

[4] = IC50 for several activities / effective range (activity not specified); settings: quoted for comparison with brain levels
[5] = 50 mg/kg in PLGA nanoparticles, oral gavage
[6] = 50 mg/kg oral gavage, free compound

SMILES: NCCc1cc(O)c(O)cc1O [6-hydroxydopamine, reference compound]
cytotoxicity at 24 h, 30 μM ([1]; 30 μM 6-hydroxydopamine): 90% | cytotoxicity at 24 h, 50 μM ([1]; 50 μM 6-hydroxydopamine): 95% | 6-hydroxydopamine concentration giving 50% decrease in cell survival (SHSY5Y cells): ~50 µM

IC50 [2]: 6.6 ± 1.03 µM | Kd (purified VDAC1; MST, purified VDAC1 133 nM, 20 min incubation, means±SD (n=3), read-out: VDAC1 binding affinities): 31.3 ± 1.7 µM | IC50 (VDAC1; HEK-293 cells, compound 2 h then selenite 15 μM 4 h, means±SD (n=3), read-out: VDAC1 oligomerization IC50): 8.8 ± 0.56 µM
SMILES: O=C1CC(N2CCN(c3ccc(OC(F)(F)F)cc3)CC2)C(=O)N1c1ccc(Cl)cc1 (centres unmarked) [Formula 2, 1-(4-chlorophenyl)-3-(4-(4-(trifluoromethoxy)phenyl)piperazin-1-yl)pyrrolidine-2,5-dione]
IC50 (HEK-293 cells): 7.5 ± 0.27 µM

SMILES: O=C1CC(N2CCC(Nc3ccc(OC(F)(F)F)cc3)CC2)C(=O)N1c1ccc(Cl)cc1 (centres unmarked) [Formula 10]
IC50 [2]: 3.6 ± 0.4 µM | IC50 (HEK-293 cells): 3.4 ± 0.2 µM | Kd (purified VDAC1): 15.4 ± 2.9 µM | concentration at 12 h [3, 5]: 4.36 ± 0.148 µM | concentration at 24 h [3, 5]: 2.8 ± 1.19 µM | concentration at 12 h [3, 6]: 4.2 ± 0.714 µM | concentration at 24 h [3, 6]: 1.24 ± 0.23 µM | brain penetration ([3]; given orally, in solution or encapsulated in PLGA nano-particles): reached the brain | IC50 [4]: 1 µM | IC50 (VDAC1): 3.3 ± 0.18 µM

Source: patent publication US10787423B2, “Piperazine and piperidine derivatives, their synthesis and use thereof in inhibiting VDAC oligomerization, apoptosis and mitochondria dysfunction” (THE NATIONAL INSTITUTE FOR BIOTECHNOLOGY IN THE NEGEV LTD., priority 2015, dated 2020)
